Legend:
[1] = Measurement of Log P values by HPLC on reversed phase columns (EEC directive 79/831 Annex V.A8); format: physicochemical; settings: method [a]: LC-UV, acidic range, 0.1% formic acid in water and acetonitrile
Botrytis cinerea = Botrytis cinerea in vitro cell test; format: cell-based; settings: 144 h, 50 μMol/l of active ingredient, liquid culture, 6 days incubation, read-out: efficacy (inhibition of fungal growth)
Procedure: B-9. Botrytis cinerea In Vitro Cell Test • Solvent: DMSO • Culture medium: 1 g KH2PO4 (VWR), 1 g K2HPO4 (VWR), 0.5 g Urea (VWR), 3 g KNO3 (Prolabo), 10 g saccharose (VWR), 0.5 g MgSO4, 7H2O (Sigma), 0.07 g CaCl2, 2H2O (Prolabo), 0.2 mg MnSO4, H2O (Sigma), 0.6 mg CuSO4, 5H2O (Sigma), 7.9 mg ZnSO4, 7H2O (Sigma), 0.1 mg H3BO3 (Merck), 0.14 mg NaMoO4, 2H2O (Sigma), 2 mg thiamine (Sigma), 0.1 mg biotine (VWR), 4 mg FeSO4, 7H2O (Sigma), QSP 1 liter • Inoculum: spore suspension Fungicides were solubilized in DMSO and the solution used to prepare the required range of concentrations. […] A spore suspension of B. cinerea was prepared and diluted to the desired spore density. Fungicides were evaluated for their ability to inhibit spore germination and mycelium growth in liquid culture assay. The compounds were added in the desired concentration to the culture medium with spores. After 6 days incubation, fungi-toxicity of compounds was determined by spectrometric measurement of mycelium growth. Inhibition of fungal growth was determined by comparing the absorbance values in wells containing the fungicides with the absorbance in control wells without fungicides.

[2] = Table 1, compounds of formula (I)
[3] = Table 3, intermediates of formula (27)

Compound: FC(F)(F)Oc1cccc(Sc2nnc(Cl)cc2C2=NOC[C@H](Cc3ccc(Cl)cc3Cl)N2)c1 (racemic) [Compound I-019]
- chromatographic logP [1, 2]: 4.99

Compound: Cc1cc([C@H]2CON=C(c3c(Sc4cccc5ccccc45)nnc(C)c3C)N2)c(C)s1 (racemic) [Compound I-037]
- chromatographic logP [1, 2]: 3.67

Compound: Cc1cc([C@@H]2CON=C(c3c(Sc4ccc(Cl)cc4Cl)nnc(C)c3C)N2)c(C)s1 (racemic) [Compound I-039]
- chromatographic logP [1, 2]: 3.87

Compound: Cc1cc([C@H]2CON=C(c3c(Sc4ccncc4)nnc(C)c3C)N2)c(C)s1 (racemic) [Compound I-041]
- chromatographic logP [1, 2]: 1.58

Compound: Cc1ccc(C)c(Sc2nnc(C)c(C)c2C2=NOC[C@H](c3ccc(C)s3)N2)c1 (racemic) [Compound I-043]
- chromatographic logP [1, 2]: 3.28

Compound: Cc1cc([C@@H]2CON=C(c3c(Sc4ccc(F)cc4F)nnc(C)c3C)N2)c(C)s1 (racemic) [Compound I-051]
- chromatographic logP [1, 2]: 3.32

Compound: Cc1ccc(Sc2nnc3ccccc3c2C2=NOC[C@H](c3ccc(C)s3)N2)c(C)c1 (racemic) [Compound I-052]
- chromatographic logP [1, 2]: 3.83

Compound: Cc1ccc([C@H]2CON=C(c3c(Sc4cc(Cl)ccc4Cl)nnc(C)c3C)N2)s1 (racemic) [Compound I-053]
- chromatographic logP [1, 2]: 3.4

Compound: COc1ccc(Sc2nnc(C)c(C)c2C2=NOC[C@@H](c3ccc(C)s3)N2)cc1 (racemic) [Compound I-054]
- chromatographic logP [1, 2]: 2.76

Compound: Cc1ccc(C)c(Sc2nnc(C)c(C)c2C2=NOC[C@H](c3cc(C)sc3C)N2)c1 (racemic) [Compound I-057]
- chromatographic logP [1, 2]: 3.66

Compound: Cc1ccc([C@H]2CON=C(c3c(Sc4ccc(Cl)cc4Cl)nnc4ccccc34)N2)s1 (racemic) [Compound I-058]
- chromatographic logP [1, 2]: 3.96

Compound: Cc1cc([C@H]2CON=C(c3c(Sc4cc(Cl)cc(Cl)c4)nnc(C)c3C)N2)c(C)s1 (racemic) [Compound I-061]
- inhibition at 50 µM (Botrytis cinerea): 70 to 79%
- chromatographic logP [1, 2]: 4.04

Compound: Cc1ccc([C@@H]2CON=C(c3c(Sc4ccc(F)cc4)nnc(C)c3C)N2)s1 (racemic) [Compound I-063]
- inhibition at 50 µM (Botrytis cinerea): 70 to 79%
- chromatographic logP [1, 2]: 2.82

Compound: Cc1ccc([C@H]2CON=C(c3c(Sc4ccc(Cl)cc4)nnc(C)c3C)N2)s1 (racemic) [Compound I-064]
- chromatographic logP [1, 2]: 3.14

Compound: Cc1ccc([C@@H]2CON=C(c3c(Sc4ccc(C(C)(C)C)cc4)nnc(C)c3C)N2)s1 (racemic) [Compound I-065]
- chromatographic logP [1, 2]: 3.95

Compound: Cc1ccc([C@H]2CON=C(c3c(Sc4ccc(Cl)cc4)nnc4ccccc34)N2)s1 (racemic) [Compound I-070]
- chromatographic logP [1, 2]: 3.62

Compound: Cc1ccc([C@H]2CON=C(c3c(Sc4ccncc4)nnc(C)c3C)N2)s1 (racemic) [Compound I-072]
- chromatographic logP [1, 2]: 1.3

Compound: Cc1ccc([C@@H]2CON=C(c3c(Sc4ccc(F)cc4F)nnc(C)c3C)N2)s1 (racemic) [Compound I-073]
- inhibition at 50 µM (Botrytis cinerea): 80 to 89%
- chromatographic logP [1, 2]: 2.95

Compound: Cc1ccc([C@@H]2CON=C(c3c(Sc4ccc(Cl)cc4Cl)nnc(C)c3C)N2)s1 (racemic) [Compound I-075]
- chromatographic logP [1, 2]: 3.45

Compound: Cc1cc([C@@H]2CON=C(c3c(Sc4ccc(C(F)(F)F)cc4)nnc(C)c3C)N2)c(C)s1 (racemic) [Compound I-076]
- chromatographic logP [1, 2]: 3.71

Compound: COc1ccc(Sc2nnc3ccccc3c2C2=NOC[C@H](c3ccc(C)s3)N2)cc1 (racemic) [Compound I-077]
- chromatographic logP [1, 2]: 3.22

Compound: Cc1cc([C@@H]2CON=C(c3c(Sc4ccc(F)cc4)nnc(C)c3C)N2)c(C)s1 (racemic) [Compound I-081]
- chromatographic logP [1, 2]: 3.18

Compound: Cc1ccc([C@@H]2CON=C(c3c(Sc4ccc(C)c(Cl)c4)nnc(C)c3C)N2)s1 (racemic) [Compound I-082]
- inhibition at 50 µM (Botrytis cinerea): 90 to 100%
- chromatographic logP [1, 2]: 3.47

Compound: Cc1ccc(Sc2nnc(C)c(C)c2C2=NOC[C@@H](c3cc(C)sc3C)N2)c(C)c1 (racemic) [Compound I-087]
- inhibition at 50 µM (Botrytis cinerea): 70 to 79%
- chromatographic logP [1, 2]: 3.68

Compound: Cc1ccc([C@H]2CON=C(c3c(Sc4cccc5ccccc45)nnc(C)c3C)N2)s1 (racemic) [Compound I-092]
- chromatographic logP [1, 2]: 3.3

Compound: Cc1ccc([C@H]2CON=C(c3c(Sc4ccc(C)c(C)c4)nnc(C)c3C)N2)s1 (racemic) [Compound I-093]
- inhibition at 50 µM (Botrytis cinerea): 90 to 100%
- chromatographic logP [1, 2]: 3.26

Compound: Cc1ccc(Sc2nnc(C)c(C)c2C2=NOC[C@@H](c3ccc(C)s3)N2)cc1 (racemic) [Compound I-094]
- chromatographic logP [1, 2]: 3.01

Compound: Cc1ccc([C@H]2CON=C(c3c(Sc4cc(Cl)ccc4Cl)nnc4ccccc34)N2)s1 (racemic) [Compound I-096]
- chromatographic logP [1, 2]: 3.88

Compound: Cc1ccc([C@H]2CON=C(c3c(Sc4ccc5ccccc5c4)nnc4ccccc34)N2)s1 (racemic) [Compound I-098]
- chromatographic logP [1, 2]: 3.81

Compound: Cc1ccc(Sc2nnc3ccccc3c2C2=NOC[C@H](c3ccc(C)s3)N2)cc1 (racemic) [Compound I-101]
- chromatographic logP [1, 2]: 3.49

Compound: Cc1ccc([C@H]2CON=C(c3c(Sc4ccccn4)nnc(C)c3C)N2)s1 (racemic) [Compound I-105]
- chromatographic logP [1, 2]: 2.03

Compound: Cc1cc([C@H]2CON=C(c3c(Sc4ccc(Cl)c(Cl)c4)nnc(C)c3C)N2)c(C)s1 (racemic) [Compound I-107]
- inhibition at 50 µM (Botrytis cinerea): 80 to 89%
- chromatographic logP [1, 2]: 3.92

Compound: Cc1ccc([C@H]2CON=C(c3c(Sc4ccc(OC(F)(F)F)cc4)nnc4ccccc34)N2)s1 (racemic) [Compound I-112]
- inhibition at 50 µM (Botrytis cinerea): 70 to 79%
- chromatographic logP [1, 2]: 3.96

Compound: Cc1ccc([C@H]2CON=C(c3c(Sc4ccc(C(C)(C)C)cc4)nnc4ccccc34)N2)s1 (racemic) [Compound I-113]
- chromatographic logP [1, 2]: 4.43

Compound: Cc1ccc([C@H]2CON=C(c3c(Sc4ccccc4Cl)nnc(C)c3C)N2)s1 (racemic) [Compound I-114]
- inhibition at 50 µM (Botrytis cinerea): 90 to 100%
- chromatographic logP [1, 2]: 2.93

Compound: Cc1ccc([C@H]2CON=C(c3c(Sc4cc(Cl)cc(Cl)c4)nnc(C)c3C)N2)s1 (racemic) [Compound I-115]
- inhibition at 50 µM (Botrytis cinerea): 90 to 100%
- chromatographic logP [1, 2]: 3.68

Compound: Cc1ccc([C@@H]2CON=C(c3c(Sc4ccc(OC(F)(F)F)cc4)nnc(C)c3C)N2)s1 (racemic) [Compound I-116]
- chromatographic logP [1, 2]: 3.52

Compound: Cc1ccc([C@H]2CON=C(c3c(Sc4cc(Cl)cc(Cl)c4)nnc4ccccc34)N2)s1 (racemic) [Compound I-120]
- chromatographic logP [1, 2]: 4.18

Compound: Cc1ccc(C)c(Sc2nnc3ccccc3c2C2=NOC[C@H](c3ccc(C)s3)N2)c1 (racemic) [Compound I-123]
- chromatographic logP [1, 2]: 3.8

Compound: Cc1ccc([C@@H]2CON=C(c3c(Sc4ccc(C(F)(F)F)cc4)nnc(C)c3C)N2)s1 (racemic) [Compound I-128]
- chromatographic logP [1, 2]: 3.36

Compound: Cc1cc([C@@H]2CON=C(c3c(Sc4ccc(C(C)(C)C)cc4)nnc(C)c3C)N2)c(C)s1 (racemic) [Compound I-132]
- chromatographic logP [1, 2]: 4.32

Compound: Cc1cc([C@H]2CON=C(c3c(Sc4ccc(Cl)cc4)nnc(C)c3C)N2)c(C)s1 (racemic) [Compound I-134]
- chromatographic logP [1, 2]: 3.49

Compound: Cc1ccc([C@@H]2CON=C(c3c(Sc4ccc5ccccc5c4)nnc(C)c3C)N2)s1 (racemic) [Compound I-138]
- chromatographic logP [1, 2]: 3.33

Compound: C=CCON=C(N)c1c(Br)nnc(C)c1C [Compound 27-01]
- chromatographic logP [1, 3]: 1.28

Compound: C=CCON=C(N)c1c(Br)nnc2ccccc12 [Compound 27-02]
- chromatographic logP [1, 3]: 1.81

Compound: NC(=NO)c1c(Br)nnc2ccccc12 [Compound 29-02]
- chromatographic logP ([1]; Table 4, intermediates of formula (29)): 0.31

Reference: US20250042886A1, “BIS(HETERO)ARYL THIOETHER OXADIAZINES AS FUNGICIDAL COMPOUNDS” (Bayer Aktiengesellschaft, priority 2021, published 2025)
